# Literature values in patent US8044033B2, “Fluorocytidine derivatives and COX-2 inhibitors for the treatment of cancer” (The Board of Regents of the University of Texas System, priority 2006, dated 2011).
# Where two headings read alike, the source gives them in different places.
# Key:
# [1] = test system: metastatic colorectal cancer
# [2] = First-line therapy, no radiation, cross-study comparison
# [3] = first-line treatment of metastatic colorectal cancer
smiles,measurement,setting,value
"CCCCCOC(=O)Nc1nc(=O)n([C@@H]2O[C@H](C)[C@@H](O)[C@H]2O)cc1F [Capecitabine, capecitabine]",Complete response (%),[1]; [2],1%
same,Median OS (months),[1]; [2],12.4-13.2 months
same,Median OS (months),"[1]; Second-line therapy, no radiation, cross-study comparison",12.7 months
same,overall survival,[1]; [3],12 months
same,response rate,[1]; [3],25%
same,time to tumor progression in half of the patients,[1]; monotherapy,2-4 months
same,incidence of hand-foot syndrome (HFS),1250 mg/m2/day bid for two weeks every 3 weeks,54%
same,incidence of grade 2/3 HFS,"earlier study, capecitabine dose 1000 mg/m2/d bid (Lin et al., 2002)",34.2%
